Test results: patent US8680012B2, “4-phenyl-pyrane-3,5-diones,4-phenyl-thiopyrane-3,6-diones and cyclohexanetriones as novel herbicides” (Syngenta Crop Protection LLC, priority 2006, dated 2014)

What was measured:
Format in all cases: in vivo
[1] = system: Alopecurus myosuroides (ALOMY); experiment: Example B post-emergence herbicidal activity, glasshouse pot test; conditions: 312 h, rate 250 g/ha, evaluated after 13 days, read-out: Post-emergence activity ALOMY (100=total damage to plant; 0=no damage to plant)
Description: (§1) Seeds of a variety of test species were sown in standard soil in pots. After cultivation for one day (pre-emergence) or after 8 days cultivation (post-emergence) under controlled conditions in a glasshouse (at 24/16° C., day/night; 14 hours light; 65% humidity), the plants were sprayed with an aqueous spray solution derived from the formulation of the technical active ingredient in acetone/water (50:50) solution containing 0.5% Tween 20 (polyoxyethelyene sorbitan monolaurate, CAS RN 9005-64-5). The test plants were then grown in a glasshouse under controlled conditions in a glasshouse (at 24/16° C., day/night; 14 hours light; 65% humidity) and watered twice daily. After 13 days for pre and post-emergence, the test was evaluated (100=total damage to plant; 0=no damage to plant).
(§2) Alopecurus myosuroides (ALOMY), Avena fatua (AVEFA), Setaria faberi (SETFA), Echinochloa crus-galli (ECHCG), Solanum nigrum (SOLNI) and Amaranthus retroflexus (AMARE)

Avena fatua (AVEFA) [2] = experiment: as above; conditions: 312 h, rate 250 g/ha, evaluated after 13 days, read-out: Post-emergence activity AVEFA (100=total damage to plant; 0=no damage to plant)
Description: as §1, §2

Setaria faberi (SETFA) [3] = experiment: as above; conditions: 312 h, rate 250 g/ha, evaluated after 13 days, read-out: Post-emergence activity SETFA (100=total damage to plant; 0=no damage to plant)
Description: as §1, §2

[4] = system: Amaranthus retroflexus (AMARE); experiment: as above; conditions: 312 h, rate 250 g/ha, evaluated after 13 days, read-out: Post-emergence activity AMARE (100=total damage to plant; 0=no damage to plant)
Description: as §1, §2

[5] = system: Echinochloa crus-galli (ECHCG); experiment: as above; conditions: 312 h, rate 250 g/ha, evaluated after 13 days, read-out: Post-emergence activity ECHCG (100=total damage to plant; 0=no damage to plant)
Description: as §1, §2

[6] = system: Alopecurus myosuroides (ALOMY); experiment: Example B pre-emergence herbicidal activity, glasshouse pot test; conditions: 312 h, rate 250 g/ha, evaluated after 13 days, read-out: Pre-emergence activity ALOMY (100=total damage to plant; 0=no damage to plant)
Description: as §1, §2

Avena fatua (AVEFA) [7] = experiment: as above; conditions: 312 h, rate 250 g/ha, evaluated after 13 days, read-out: Pre-emergence activity AVEFA (100=total damage to plant; 0=no damage to plant)
Description: as §1, §2

Setaria faberi (SETFA) [8] = experiment: as above; conditions: 312 h, rate 250 g/ha, evaluated after 13 days, read-out: Pre-emergence activity SETFA (100=total damage to plant; 0=no damage to plant)
Description: as §1, §2

[9] = system: Amaranthus retroflexus (AMARE); experiment: as above; conditions: 312 h, rate 250 g/ha, evaluated after 13 days, read-out: Pre-emergence activity AMARE (100=total damage to plant; 0=no damage to plant)
Description: as §1, §2

[10] = system: Echinochloa crus-galli (ECHCG); experiment: as above; conditions: 312 h, rate 250 g/ha, evaluated after 13 days, read-out: Pre-emergence activity ECHCG (100=total damage to plant; 0=no damage to plant)
Description: as §1, §2

| SMILES | pest or weed control at 250 g/ha [1] [%] | pest or weed control at 250 g/ha (Avena fatua (AVEFA) [2]) [%] | pest or weed control at 250 g/ha (Setaria faberi (SETFA) [3]) [%] | pest or weed control at 250 g/ha [4] [%] | pest or weed control at 250 g/ha [5] [%] | pest or weed control at 250 g/ha [6] [%] | pest or weed control at 250 g/ha (Avena fatua (AVEFA) [7]) [%] | pest or weed control at 250 g/ha (Setaria faberi (SETFA) [8]) [%] | pest or weed control at 250 g/ha [9] [%] | pest or weed control at 250 g/ha [10] [%] |
| --- | --- | --- | --- | --- | --- | --- | --- | --- | --- | --- |
| CCc1ccc(-c2ccc(Cl)cc2)cc1C1=C(O)[C@@]2(CC)CC[C@H](O2)C1=O [Compound A-79] | 80 | 50 | 100 | 0 | 100 | 40 | 40 | 100 | 0 | 80 |
| CCc1ccc(-c2ccc(Br)cc2)cc1C1=C(O)C(C)(C)OC(C)(C)C1=O [Compound A-81] | 100 | 100 | 100 | 0 | 100 | 80 | 90 | 100 | 0 | 100 |
| Cc1ccc(-c2ccc(Br)cc2)cc1C1=C(O)C(C)(C)OC(C)(C)C1=O [Compound A-82] | 100 | 100 | 100 | 0 | 100 | 80 | 90 | 90 | 20 | 100 |
| CCOc1ccc(-c2ccc(Cl)cc2Cl)cc1C1=C(O)C(C)(C)OC(C)(C)C1=O [Compound A-87] | 10 | 0 | 80 | 0 | 80 | 0 | 0 | 0 | 0 | 0 |
| CCOc1ccc(-c2ccc(Cl)cc2F)cc1C1=C(O)C(C)(C)OC(C)(C)C1=O [Compound A-88] | 50 | 10 | 90 | 0 | 90 | 0 | 10 | 0 | 0 | 0 |
| CCOc1ccc(-c2ccc(Cl)cc2)cc1C1=C(O)C(C)(C)OC(C)(C)C1=O [Compound A-89] | 80 | 50 | 80 | 0 | 90 | 0 | 0 | 50 | 0 | 0 |
| COc1ccc(-c2ccc(Cl)cc2)cc1C1=C(O)C(C)(C)OC(C)(C)C1=O [Compound A-90] | 40 | 20 | 90 | 0 | 90 | 0 | 0 | 0 | 0 | 0 |
| Cc1cc(C)c(-c2ccc(Cl)cc2)c(C)c1C1=C(O)C(C)(C)OC(C)(C)C1=O [Compound A-92] | 50 | 0 | 90 | 0 | 100 | 10 | 0 | 60 | 0 | 50 |
